One series concerns panelists. Description: Sensory evaluation of 1 and 3 (single sip protocol, taste panel). Type of series: in vivo, human. As to conditions: 400 ppm in water, 4° C.; for Bitter Aftertaste Intensity / Sweet Linter Intensity / Other Intensity / Overall Max Bitterness Intensity / Overall Max Sweetness Intensity / Bitter Intensity (In mouth) / Sweet Intensity (In mouth): mean score; for Bitter Aftertaste Intensity / Sweet Linter Intensity: 1 minute after tasting; for Other Intensity: any aromatic other than sweet and bitter or mouthfeel; for Overall Max Bitterness Intensity / Overall Max Sweetness Intensity: up to 1 minute. As for the experimental part: Samples were prepared as described in Table 1. All samples were served at 4° C.
Samples were evaluated using a single sip protocol as follows: • Samples were served at approximately 4° C. • Panelists were instructed to take 1 sip of the sample, hold in mouth for 5 seconds, expectorate comfortable with this), and rate the given attributes • A 5 minute break was placed between each sample and panelists were instructed to cleanse their palates with at least 1 bite of unsalted cracker and 2 sips of filtered water • Due to limited sample quantities, panelists were given the following amounts to test: • a 3 vs Reb M: 1.5 mL • 1 vs Reb M: 5 mL • Samples were randomized within each session for each panelist • All samples were presented in replicate in each session Samples were evaluated for: • Sweet taste intensity: maximum level of sweetness in mouth during 5 seconds • Bitter taste intensity: maximum level of bitterness in mouth during 5 seconds • Overall maximum sweet intensity: maximum sweet intensity experienced from the time the sip is taken up to 1 minute • Overall maximum bitter intensity: maximum […] intensity experienced from the time the sip is taken up to 1 minute • Other intensity: Intensity of any aromatic other than sweet and bitter (metallic, plastic, licorice, etc.) or mouthfeel/sensation • Sweet linger intensity: sweet intensity 1 minute after tasting the sample • Bitter aftertaste intensity: bitter intensity 1 minute after tasting the sample Data Analysis. A 3-way ANOVA was used to compare the sweeteners for each attribute, for 1 only, and significance was determined at p<0.05. Fishers's LSD was used to determine significant differences between mean scores.

Series [1] is described as follows: Solubility observed when preparing NMR samples (solvent screen). The series is classed as physicochemical. As to conditions: for Dissolution of the sample in 250 μL of CD3OD: ~4.3 mg (4, CD3OD+TMS) or 3.8 mg (6) in 250 μL. As for the experimental part: Isolation Procedure. Fractions collected during the final pre-concentration step were filtered through a stainless steel sieve and concentrated in vacuo using a Buchi® Rotary Evaporator, Model R-114. The concentrated solution was dried for 48-72 h using the Kinetics Flexi-Dry Personal Freeze Dryer, followed by vacuum oven drying at 37° C. for 24 h to remove residual moisture. MS and MS/MS. MS and MS/MS data were generated with a Waters QTof Micro mass spectrometer equipped with an electrospray ionization source. The sample was analyzed by negative ESI. The sample was diluted to a concentration of 0.1 mg/mL with H2O:MeCN (1:1) and introduced via flow injection for MS data acquisition, tuned for MS/MS and acquired by direct infusion. NMR. […] The ^1H, COSY, HSQC-DEPT and NOESY NMR data were acquired on Bruker Avance 500 MHz instruments with either a 2.5 mm inverse probe or a 5 mm broad band probe. The ^13C and HMBC NMR data were acquired at the Rensselaer Polytechnic Institute using their Bruker Avance 600 MHz instrument with a 5 mm cryo-probe. The ^1H and ^13C NMR spectra were referenced to the TMS resonance at δH 0.00 ppm and CD3OD resonance at 49.0 ppm, respectively. […] The sample was recovered and blown dry under nitrogen or lyophilized between each solvent screen]. Results and Discussion Unless otherwise noted, all solvent ratios are listed as percent by volume (v/v). Primary Purification. Approximately 300 g of Lot #CB-2977-171 was processed using the primary preparative HPLC method described above. […] Fraction 3 (Lot #JAM-D-10-3) contained the target of interest. Secondary Purification. Lot #JAM-D-10-3 (and equivalent lots) was reprocessed with conditions summarized above. […] Tertiary Purification. Fraction Lot #JAM-D-40-2 was reprocessed with conditions summarized above. Fractions with low level m/z 1776 targets were collected as CJP-C-128 (3, 4, 5, 7). These fractions were subsequently pooled to enhance signal strength for additional processing. Quaternary Purification. Fraction Lot #CJP-C-128 (3, 4, 5, 7) (and equivalent lots) were reprocessed with conditions summarized above. Fraction 1, Lot #CJP-C-130(1), was isolated for additional processing. Quinary Purification. Fraction Lot #CJP-C-130(1) (and equivalent lots) were reprocessed with conditions summarized above. Fraction 9, Lot #CJP-C-133(9), was isolated. […] Secondary Purification. Fraction Lot #CJP-C-133(9) was reprocessed with conditions summarized above. Final Batch Preparation. The purified solution was filtered through a stainless steel sieve to remove particulates. The solution was then concentrated by rotary evaporation and lyophilized for about 72 h. The final batch (4.3 mg), was isolated with >99% (AUC, CAD) purity. Mass Spectrometry. […]

Setting [2] is: 1 vs Reb M session, 5 mL sip, N=6.
Setting [3] is: 3 vs Reb M session, 1.5 mL sip, N=3.

Consider `C=C1C[C@@]23CC[C@H]4[C@@](C)(CCC[C@@]4(C)C(=O)OC4OC(CO)C(O)C(OC5OC(CO)C(O)C(O)C5O)C4OC4OC(CO)C(O)C(O)C4O)[C@@H]2CCC1(OC1OC(CO)C(O)C(OC2OC(CO)C(O)C(O)C2O)C1OC1OC(COC2OC(CO)C(O)C(OC4OC(CO)C(O)C(O)C4O)C2OC2OC(CO)C(O)C(O)C2O)C(O)C(O)C1O)C3` (stereo partly shown) [diterpene glycoside 1], for which, in the series with panelists, the “Overall Max Sweetness compared to Reb M” value is on record as “significantly lower”, the “Sweet Intensity in Mouth compared to Reb M” value is reported as “significantly lower” and the “Sweet Linger Intensity compared to Reb M” value is “significantly lower”. Moreover, in the series with panelists (setting [2]), the “Bitter Aftertaste Intensity” value came out at 0.8, the “Sweet Linter Intensity” value is 0.0, the Other Intensity amounted to 1 and the “Overall Max Bitterness Intensity” value is 0.8. Besides, in the series on panelists (setting [2]), the “Overall Max Sweetness Intensity” value amounted to 1.1 and the “Bitter Intensity (In mouth)” value is reported as 0.7.

For the molecule `C=C1C[C@@]23CC[C@H]4[C@@](C)(CCC[C@@]4(C)C(=O)O[C@@H]4O[C@H](CO)[C@@H](O)[C@H](O[C@@H]5O[C@H](CO)[C@@H](O)[C@H](O)[C@H]5O)[C@H]4O[C@@H]4O[C@H](CO)[C@@H](O)[C@H](O)[C@H]4O)[C@@H]2CC[C@]1(O[C@@H]1O[C@H](CO)[C@@H](O)[C@H](O[C@@H]2O[C@H](CO)[C@@H](O)[C@H](O)[C@H]2O)[C@H]1O[C@@H]1O[C@H](CO)[C@@H](O)[C@H](O)[C@H]1O)C3` [Reb M, rebaudioside M, reference compound], in the series with panelists (setting [2]), the “Bitter Aftertaste Intensity” value was 0.5, the “Sweet Linter Intensity” value is recorded as 3.6, the “Other Intensity” value is on record as 0.8 and the “Overall Max Bitterness Intensity” value turned out to be 0.8. Also, in the series on panelists (setting [2]), the “Overall Max Sweetness Intensity” value is listed as 8.4, the “Bitter Intensity (In mouth)” value is listed as 0.7 and the “Sweet Intensity (In mouth)” value is given as 7.8. Further, in the series on panelists (setting [3]), the “Bitter Aftertaste Intensity” value was found to be 0.3, the “Sweet Linter Intensity” value came out at 2.5, the “Other Intensity” value worked out at 0.3 and the “Overall Max Bitterness Intensity” value is 1.4. In addition, in the series with panelists (setting [3]), the “Overall Max Sweetness Intensity” value amounted to 6.3, the “Bitter Intensity (In mouth)” value amounted to 0.4 and the “Sweet Intensity (In mouth)” value is reported as 7.4.

As to `C=C1C[C@@]23CC[C@H]4[C@@](C)(CCC[C@@]4(C)C(=O)OC4OC(CO)C(O)C(OC5OC(CO)C(O)C(O)C5O)C4OC4OC(COC5OC(CO)C(O)C(OC6OC(CO)C(O)C(O)C6O)C5OC5OC(CO)C(O)C(O)C5O)C(O)C(O)C4O)[C@@H]2CCC1(OC1OC(CO)C(O)C(OC2OC(CO)C(O)C(O)C2O)C1OC1OC(CO)C(O)C(O)C1O)C3` (stereo partly drawn) [diterpene glycoside 6, (13-[(2-O-β-D-glucopyranosyl-3-O-β-D-glucopyranosyl)-β-D-glucopyranosyl)oxy] ent-kaur-16-en-19-oic acid-[(2-O-β-D-glucopyranosyl-(6-O-α-D-glucopyranosyl-(2-O-β-D-glucopyranosyl-3-O-β-D-glucopyranosyl)-3-O-β-D-glucopyranosyl)-β-D-glucopyranosyl) ester]], the “Dissolution of the sample in 250 μL of CD3OD” value in series [1] is on record as “did not dissolve completely”.

`C=C1C[C@@]23CC[C@H]4[C@@](C)(CCC[C@@]4(C)C(=O)OC4OC(CO)C(O)C(OC5OC(CO)C(O)C(O)C5O)C4OC4OC(CO)C(O)C(OC5OC(CO)C(O)C(OC6OC(CO)C(O)C(O)C6O)C5OC5OC(CO)C(O)C(O)C5O)C4O)[C@@H]2CCC1(OC1OC(CO)C(O)C(OC2OC(CO)C(O)C(O)C2O)C1OC1OC(CO)C(O)C(O)C1O)C3` (stereo partly shown) [diterpene glycoside 4]: the “Solubility in solvent screen” value in series [1] (pyridine-d5+TMS (~4 mg/170 μL), D2O+TSP (~4 mg/170 μL), DMSO-d6+TMS) is “very poor solubility”. In addition, in series [1], the “Dissolution of the sample in 250 μL of CD3OD” value is on record as “did not dissolve readily”. Besides, the “Soluble portion of the sample in CD3OD+TMS” value in series [1] (~4.3 mg of sample in 250 μL of CD3OD+TMS) is reported as roughly 1.5 mg/250 μL.

Turning to `C=C1C[C@@]23CC[C@H]4[C@@](C)(CCC[C@@]4(C)C(=O)OC4OC(COC5OC(CO)C(O)C(OC6OC(CO)C(O)C(O)C6O)C5OC5OC(CO)C(O)C(O)C5O)C(O)C(OC5OC(CO)C(O)C(O)C5O)C4OC4OC(CO)C(O)C(O)C4O)[C@@H]2CCC1(OC1OC(CO)C(O)C(OC2OC(CO)C(O)C(O)C2O)C1OC1OC(CO)C(O)C(O)C1O)C3` (stereo partly drawn) [diterpene glycoside 3, (13-[(2-O-β-D-glucopyranosyl-3-O-β-D-glucopyranosyl)-β-D-glucopyranosyl)oxy] ent-kaur-16-en-19-oic acid-[(2-O-β-D-glucopyranosyl-3-O-β-D-glucopyranosyl-6-O-α-D-glucopyranosyl-(2-O-β-D-glucopyranosyl-3-O-β-D-glucopyranosyl)-β-D-glucopyranosyl) ester]], in the series with panelists, the “Overall Max Sweetness compared to Reb M” value was “slightly lower”, the “Sweet Intensity in Mouth compared to Reb M” value is “slightly lower” and the “Sweet Linger Intensity compared to Reb M” value was “significantly less”. Besides, in the series on panelists (setting [3]), the “Bitter Aftertaste Intensity” value is reported as 0.3, the “Sweet Linter Intensity” value was found to be 0.9, the “Other Intensity” value stood at 0.5 and the “Overall Max Bitterness Intensity” value stood at 1.3. Also, in the series on panelists (setting [3]), the “Overall Max Sweetness Intensity” value is on record as 5.6, the “Bitter Intensity (In mouth)” value came to 0.3 and the “Sweet Intensity (In mouth)” value is 5.4.
